Bridges are numbered along the chain shown (N, C = ends). Roman numbers before positions name the chains, in order. [ ]: non-standard residue; d: D form. NMeR = CN[C@@H](CCCNC(=N)N)C(=O)O; Api = NC1(C(=O)O)CCNCC1; Dab = NCC[C@H](N)C(=O)O
System: E. coli isolate CHP-04-002EC
Assay: MIC against the E. coli test isolate
Assay type: cell-based
Settings: stated as 1×MIC
Protocol: Growth inhibition assays were performed using the Gram negative E. coli isolate CHP-04-002EC obtained from Laboratory Specialists, Inc. (Westlake, Ohio). […] Untreated bacterial culture served as growth control. At 4, 8, 12 and 24 hrs post-application, the cultures were serially diluted, plated and allowed to grow overnight. Colony forming units (CFU) were determined by counting the number of newly grown colonies and multiplying by the dilution factor.

In the case of “I: H-[Api]DKGSYLPRPTPPRPIYN[NMeR]N[Dab]-NH2 / II: H-[Api]DKGSYLPRPTPPRPIYN[NMeR]N (amide I:21-II:C) [CHP-105]”, the MIC is reported as 64 µg/mL.
